Values after ≈ are worked out from the molar mass of the structure shown. Values joined by “and” are separate entries in the source; they are usually repeats but may differ in a detail not shown here. Equal values may be shown once. Where a name gives a salt, the structure may show the parent alone.
Assays:
[1] = tested on: arteriolar pressure (systolic) in the tail; test: test for hypertensive effect in rats disposed to spontaneous hypertension
[2] = solubility in various solvent; assay type: physicochemical
[3] = tested on: Aspergillus fumigatus; test: antifungal activity, MIC by agar dilution method; assay type: cell-based; settings: medium P, pH 6.8
From the text: (§1) Table 1 indicates the antibacterial and antifungal activity of AM-2282 in terms of the minimum inhibitory concentration (mcg/ml) determined by agar dilution method.
(§2) P: Potato extract containing glucose 1.0 % W/V and agar 1.2 % W/V, pH 6.8

[4] = tested on: Candida pseudotropicalis; test: antifungal activity, MIC by agar dilution method; assay type: cell-based; settings: Kluyveromyces marxianus, medium P, pH 6.8
From the text: as §1, §2

[5] = tested on: Aspergillus brevipus; test: antifungal activity, MIC by agar dilution method; assay type: cell-based; settings: medium P, pH 6.8
From the text: as §1, §2

[6] = tested on: Aspergillus niger; test: antifungal activity, MIC by agar dilution method; assay type: cell-based; settings: medium P, pH 6.8
From the text: as §1, §2

[7] = tested on: Microsporum gipseum; test: antifungal activity, MIC by agar dilution method; assay type: cell-based; settings: medium P, pH 6.8
From the text: as §1, §2

[8] = tested on: Candida albicans; test: antifungal activity, MIC by agar dilution method; assay type: cell-based; settings: medium P, pH 6.8
From the text: as §1, §2

[9] = tested on: Sclerotinia cinerea; test: antifungal activity, MIC by agar dilution method; assay type: cell-based; settings: medium P, pH 6.8
From the text: as §1, §2

[10] = tested on: Cryptococcus neoformans; test: antifungal activity, MIC by agar dilution method; assay type: cell-based; settings: medium P, pH 6.8
From the text: as §1, §2

[11] = tested on: Saccharomyces sake; test: antifungal activity, MIC by agar dilution method; assay type: cell-based; settings: medium P, pH 6.8
From the text: as §1, §2

[12] = tested on: Trichophyton rubrum; test: antifungal activity, MIC by agar dilution method; assay type: cell-based; settings: medium P, pH 6.8
From the text: as §1, §2

[13] = tested on: Trichophyton mentagrophytes; test: antifungal activity, MIC by agar dilution method; assay type: cell-based; settings: medium P, pH 6.8
From the text: as §1, §2

[14] = tested on: Piricularia oryzae; test: microbe, parasite or virus in culture; assay type: cell-based; settings: pH 6.8
[15] = tested on: Pseudomonas aeruginosa P-3; test: antibacterial activity, MIC by agar dilution method; assay type: cell-based; settings: P3, medium N, pH 7.0
From the text: as §1
(§3) *N: Peptone 0.5 % W/V, meat extract 0.5 % W/V, agar 1.2 % W/V, pH 7.0.

[16] = tested on: Escherichia coli NIJH; test: as above; assay type: cell-based; settings: medium N, pH 7.0
From the text: as §1, §3

[17] = tested on: Mycobacterium Smegmatis ATCC 607; test: as above; assay type: cell-based; settings: Mycolicibacterium smegmatis, ATCC607, medium N, pH 7.0
From the text: as §1, §3

[18] = tested on: Staphylococcus aureus FDA 209P; test: as above; assay type: cell-based; settings: FDA209P, medium N, pH 7.0
From the text: as §1, §3

[19] = tested on: Proteus vulgaris IFO 3167; test: as above; assay type: cell-based; settings: IFO3167, medium N, pH 7.0
From the text: as §1, §3

[20] = tested on: Sarcina lutea PCI 1001; test: as above; assay type: cell-based; settings: Micrococcus luteus, PCI1001, medium N, pH 7.0
From the text: as §1, §3

[21] = tested on: Bacillus substilis PCI 219; test: as above; assay type: cell-based; settings: PCI219, medium N, pH 7.0
From the text: as §1, §3

[22] = acute toxicity in mice (Behrens-Karber method); settings: mouse, in vivo, ip.
[23] = tested on: edema and ulcer; test: activity on edema and ulcer in rats; assay type: in vivo
Description: The present antibiotic substance is a basic nitrogen-containing compound, viz. a so-called alkaloid-like substance. […] The minimum effective concentration is established to be 1.0 mg/kg.

[24] = tested on: Xanthomonas oryzae; test: microbe, parasite or virus in culture; assay type: cell-based; settings: pH 7

In the case of CN[C@@H]1CC2O[C@@](C)([C@@H]1OC)n1c3ccccc3c3c4c(c5c6ccccc6n2c5c31)C(=O)NC4 [Hydrochloride of AM-2282], the “Degree of hypertension (%)” value ([1]; 0.16 mg/kg, oral, after 1 hr) is reported as -2% and 2%, the “Degree of hypertension (%)” value ([1]; 0.16 mg/kg, oral, after 3 hrs) is reported as 1% and 2% and the “Degree of hypertension (%)” value ([1]; 0.16 mg/kg, oral, after 5 hrs) is reported as 1% and 2%. The “Degree of hypertension (%)” value ([1]; 0.3 mg/kg, oral, after 3 hrs) was 23% and 13%, the “Degree of hypertension (%)” value ([1]; 0.3 mg/kg, oral, after 5 hrs) was 11% and 12% and the “Degree of hypertension (%)” value ([1]; 0.63 mg/kg, oral, after 1 hr) was 13% and 17%. For the same compound, the “Degree of hypertension (%)” value ([1]; 0.63 mg/kg, oral, after 3 hrs) was 13% and 24%, the “Degree of hypertension (%)” value ([1]; 0.63 mg/kg, oral, after 5 hrs) was 25% and 24% and the “Degree of hypertension (%)” value ([1]; 1.25 mg/kg, oral, after 1 hr) was 15% and 18%. For the same compound, the “Degree of hypertension (%)” value ([1]; 1.25 mg/kg, oral, after 3 hrs) was 23% and 25%, the “Degree of hypertension (%)” value ([1]; 1.25 mg/kg, oral, after 5 hrs) was 31% and 39% and the minimal effective dose ([1]; Rattus norvegicus, po, read-out: minimum dose rate at which the hypertensive effect appears) was 0.3 mg/kg.
In the case of CN[C@@H]1CC2O[C@@](C)([C@@H]1OC)n1c3ccccc3c3c4c(c5c6ccccc6n2c5c31)C(=O)NC4 [AM-2282], the Solubility ([2]; in chloroform) is reported as “Sparingly soluble”, the Solubility ([2]; in dimethyl formamide) is reported as “Soluble” and the Solubility ([2]; in dimethyl sulfoxide) is reported as “Soluble”. For the same compound, the Solubility ([2]; in ethyl acetate) was “Sparingly soluble”, the Solubility ([2]; in fat) was “soluble in fat” and the Solubility ([2]; in methanol) was “Sparingly soluble”. For the same compound, the Solubility ([2]; in n-butyl acetate) was “Sparingly soluble”, the Solubility ([2]; in n-hexane) was “Insoluble” and the Solubility ([2]; in petroleum ether) was “Insoluble”. For the same compound, the Solubility ([2]; in water) was “Insoluble”, the MIC [3] was 12.5 mg/L (≈ 26.8 µM) and the MIC [4] was 3.12 mg/L (≈ 6.69 µM). For the same compound, the MIC [5] was 3.12 mg/L (≈ 6.69 µM), the MIC [6] was 25 mg/L (≈ 53.6 µM) and the MIC [7] was over 100 mg/L. It also gave an MIC [8] of 6.25 mg/L (≈ 13.4 µM), an MIC [9] of 0.78 mg/L (≈ 1.67 µM) and an MIC [10] of 50 mg/L (≈ 107 µM). For the same compound, the MIC [11] was 3.12 mg/L (≈ 6.69 µM), the MIC [12] was 6.25 mg/L (≈ 13.4 µM) and the MIC [13] was 25 mg/L (≈ 53.6 µM). The MIC [14] was 0.78 mg/L (≈ 1.67 µM), the MIC [15] was over 200 mg/L and the MIC [16] was over 200 mg/L. It also gave an MIC [17] of 50 mg/L (≈ 107 µM), an MIC [18] of over 200 mg/L and an MIC [19] of over 200 mg/L. The MIC [20] was 25 mg/L (≈ 53.6 µM), the MIC [21] was over 200 mg/L and the LD50 [22] was 6.6 mg/kg. For the same compound, the minimal effective dose ([23]; Rattus norvegicus, read-out: minimum effective concentration (activity on edema and ulcer)) was 1 mg/kg, the “activity on edema and ulcer” value ([23]; rats) was “exhibit an activity on edema and ulcer” and the MIC [24] was 200 mg/L (≈ 429 µM).
With CC(N)(Cc1ccc(O)c(O)c1)C(=O)O (stereo not drawn) [α-methyl DOPA, reference compound] the “Degree of hypertension (%)” value ([1]; 100 mg/kg, after 1 hr) was 7%, the “Degree of hypertension (%)” value ([1]; 100 mg/kg, after 3 hrs) was 13% and the “Degree of hypertension (%)” value ([1]; 100 mg/kg, after 5 hrs) was 13%.
